Laboratory results reported in ChEMBL document CHEMBL1201862, “PubChem BioAssay data set” (2004).
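Exposure lasted 48 hours, with cells grown in 96-well plates and compounds tested at five concentrations. Abbreviation: GI50, concentration required for 50% inhibition of growth.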 Activity calls are given as the source filed them. Cut-off read from the data, not from the text of the source: active = GI50 up to about 1.1 µM and inactive = higher.

Tests used:
Assay in all cases: NCI tumour cell line growth inhibition, 48 h
786-0 = test system: 786-0
CCRF-CEM = test system: CCRF-CEM
EKVX = test system: EKVX
HL-60 = test system: HL-60
IGROV-1 = test system: IGROV-1
K562 = test system: K562
KM12 = test system: KM12
M14 = test system: M14
Malme-3M = test system: Malme-3M
NCI-H522 = test system: NCI-H522
NCI/ADR-RES = test system: NCI/ADR-RES
OVCAR-8 = test system: OVCAR-8
PC-3 = test system: PC-3
RXF 393 = test system: RXF 393
SK-MEL-5 = test system: SK-MEL-5
SK-OV-3 = test system: SK-OV-3
SR = test system: SR
T47D = test system: T47D
TK-10 = test system: TK-10
UO-31 = test system: UO-31

Row | Compound | GI50 (786-0) | GI50 (CCRF-CEM) | GI50 (EKVX) | GI50 (HL-60) | GI50 (IGROV-1) | GI50 (K562) | GI50 (KM12) | GI50 (M14) | GI50 (Malme-3M) | GI50 (NCI-H522) | GI50 (NCI/ADR-RES) | GI50 (OVCAR-8) | GI50 (PC-3) | GI50 (RXF 393) | GI50 (SK-MEL-5) | GI50 (SK-OV-3) | GI50 (SR) | GI50 (T47D) | GI50 (TK-10) | GI50 (UO-31)
1 | C[N+]12CCCCC1C(CN1C(=O)c3ccccc3C1=O)CCC2 (stereo not given) | > 100 µM (inactive) | > 100 µM (inactive) | > 100 µM (inactive) | > 100 µM (inactive) | > 100 µM (inactive) | > 100 µM (inactive) | > 100 µM (inactive) | > 100 µM (inactive) | > 100 µM (inactive) | > 100 µM (inactive) | > 100 µM (inactive) | > 100 µM (inactive) | > 100 µM (inactive) | > 100 µM (inactive) | > 100 µM (inactive) | > 100 µM (inactive) | 56 µM (inactive) | > 100 µM (inactive) | > 100 µM (inactive) | > 100 µM (inactive)
2 | N/N=C1N=C(Cl)/C(=C/c2ccco2)N\1 | 61.5 µM (inactive) | 31.4 µM (inactive) | > 100 µM (inactive) | 21.9 µM (inactive) | 42.4 µM (inactive) | 14.8 µM (inactive) | 28.2 µM (inactive) | 35.2 µM (inactive) | 52.5 µM (inactive) | 22.7 µM (inactive) | 44.5 µM (inactive) | 44.5 µM (inactive) | 36.7 µM (inactive) | 65.2 µM (inactive) | 34 µM (inactive) | 76 µM (inactive) | 25.8 µM (inactive) | 40.4 µM (inactive) | 71.9 µM (inactive) | 43.1 µM (inactive)
3 | CCOc1cc2c(cc1O)C=C[C@@H]1[C@@H]2CC[C@]2(C)[C@@H](O)CC[C@@H]12 | 4.35 µM (inactive) | 3.15 µM (inactive) | 4.79 µM (inactive) | 0.579 µM (active) | 2.88 µM (inactive) | 1.8 µM (inactive) | 5.3 µM (inactive) | 2.8 µM (inactive) | 1.5 µM (inactive) | 1.77 µM (inactive) | 1.37 µM (inactive) | 4.29 µM (inactive) | 3.64 µM (inactive) | 7.29 µM (inactive) | 1.97 µM (inactive) | 3.34 µM (inactive) | 0.472 µM (active) | 6.01 µM (inactive) | 14.4 µM (inactive) | 6.08 µM (inactive)
